Peptide text beside a SMILES is read from it. * marks the point of attachment. Cbz = O=C(OCc1ccccc1)*
System: proteasome
Assay: PARIS steady state levels in SH-SY5Y cells treated with proteasome inhibitor (immunoblot)
Type: cell-based, human
Conditions: for PARIS steady state level: 10 μM MG-132 vs DMSO control, normalized to β-actin
Method: Human neuroblastoma SH-SY5Y cells (ATCC, Manassas, Va.) were grown in DMEM containing 10% FBS and antibiotics in a humidified 5% CO2/95% air atmosphere at 37° C. For transient transfection, cells were transfected with indicated amounts of target vector using Lipofectamine Plus (Invitrogen), according to manufacturer's instructions. For co-immunoprecipitation from cell cultures, SH-SY5Y cells were transfected with 2 μg of each plasmid, unless otherwise indicated. For the ubiquitination assay, SH-SY5Y cells were transiently transfected with 2 μg of pRK5-Myc-tagged parkin, Myc-tagged parkin (C431F, G430D, R275W, and Q311 X) pCMV-FLAG-PARIS, and 2 μg of pMT123-HA-ubiquitin plasmids for 48 hours. For the luciferase assay SH-SY5Y cells were transiently transfected with pCMV-empty vector or pCMV-FLAG-PARIS with either wild type or Q311X parkin, or pGL3-Basic, pGL3-PGC-1α promoter-Luciferase, or pGL3-PGC-1α promoter deletion mutant (a gift from Akyoshi Fukamizu, University of Tsukuba, Japan) (Daitoku et al., 2003) for firefly Luciferase assay and 0.1 μg pRL-TK vector (Promega) for Renilla luciferase control.
The tissues including nine different organs, eight different brain regions from C57/BL6 mouse, human brain, and mouse brain were homogenized in lysis buffer [10 mM Tris-HCl, pH 7.4, 150 mM NaCl, 5 mM EDTA, 0.5% Nonidet P-40, 10 mM Na-β-glycerophosphate, […] I and II (Sigma), and Complete Protease Inhibitor Mixture (Roche)], using a Diax 900 homogenizer. After homogenization, samples were rotated at 4° C. for 30 min for complete lysis, then the homogenate was centrifuged at 52,000 rpm for 20 min, and the resulting fractions were collected. Protein levels were quantified using the BCA kit (Pierce) with BSA standards and analyzed by immunoblot. Immunoblotting was performed with an antibody of interest and was performed with chemiluminescence (Pierce). The densitometric analyses of the bands were performed using ImageJ (NIH, http://rsb.info.nih.gov/ij/). Data are expressed as mean±S.E.M. The results were evaluated for statistical significance by applying the unpaired two-tailed Student's t-test or Student-Newman-Keuls. Differences were considered significant when p<0.05.

## CC(C)C[C@@H](C=O)NC(=O)[C@H](CC(C)C)NC(=O)[C@H](CC(C)C)NC(=O)OCc1ccccc1 [MG132] (Cbz-Leu-Leu-Leu-aldehyde)
  PARIS steady state level: increased approximately two to three fold
Listed as MG-132
  PARIS steady state level: increases PARIS steady state levels
MYC-parkin to FLAG-PARIS 4 to 1, 10 μM MG-132
  Parkin-mediated degradation of FLAG-PARIS: blocked
MYC-parkin to FLAG-PARIS 4 to 1, 10 μM MG-132, listed as MG-132
  Parkin-mediated degradation of FLAG-PARIS: prevents the degradation of FLAG-PARIS

— patent US9274128B2, “Transcriptional repression leading to parkinson's disease” (priority 2010, dated 2016)
